Molecular target: T1, Anthranilate phosphoribosyltransferase (Mycobacterium tuberculosis (strain CDC 1551 / Oshkosh), UniProt P9WFX4)
T1 sequence (P9WFX4 whole entry): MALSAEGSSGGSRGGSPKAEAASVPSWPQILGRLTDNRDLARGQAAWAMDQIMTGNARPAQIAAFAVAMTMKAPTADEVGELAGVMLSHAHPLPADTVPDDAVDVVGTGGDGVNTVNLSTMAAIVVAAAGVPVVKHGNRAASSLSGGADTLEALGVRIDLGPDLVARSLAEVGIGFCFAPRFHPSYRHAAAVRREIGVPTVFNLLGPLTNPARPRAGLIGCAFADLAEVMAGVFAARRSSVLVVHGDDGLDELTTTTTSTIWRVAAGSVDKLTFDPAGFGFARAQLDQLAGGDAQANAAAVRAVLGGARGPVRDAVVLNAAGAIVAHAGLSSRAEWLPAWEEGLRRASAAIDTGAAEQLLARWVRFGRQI
Assay: Fluoresence-based Assay
From the text: An enzyme-coupled absorbance-based assay developed in house was used to determine the inhibitor-enzyme kinetic parameters of Mtb-AnPRT, including ki values for the inhibitors.

SMILES	Ki [µM]
COc1ccc(C(=O)O)cc1N [ACS No 126]	60
NC(CCCNc1ccc([N+](=O)[O-])cc1[N+](=O)[O-])CC(=O)O (configuration not stated) [ACS No 165]	79
